# Measurements from ChEMBL document CHEMBL4334539, “Discovery of VU6015929: A Selective Discoidin Domain Receptor 1/2 (DDR1/2) Inhibitor to Explore the Role of DDR1 in Antifibrotic Therapy” (ACS Med Chem Lett, 2020).
# Assays:
# [1] = Clearance in Sprague-Dawley rat at 0.5 mg/kg, iv or 3 mg/kg, po measured upto 24 hrs by LC/MS/MS analysis; format: ADME, organism-based; settings: in vivo
# [2] = Oral bioavailability in Sprague-Dawley rat at 3 mg/kg measured upto 24 hrs by LC/MS/MS analysis; format: ADME, organism-based; settings: in vivo
# [3] = Half life in Sprague-Dawley rat at 0.5 mg/kg, iv or 3 mg/kg, po measured upto 24 hrs by LC/MS/MS analysis; format: ADME, organism-based; settings: in vivo
# [4] = Tmax in Sprague-Dawley rat at 3 mg/kg, po measured upto 24 hrs by LC/MS/MS analysis; format: ADME, organism-based; settings: in vivo
# [5] = Volume of distribution at steady state in Sprague-Dawley rat at 0.5 mg/kg, iv or 3 mg/kg, po measured upto 24 hrs by LC/MS/MS analysis; format: ADME, organism-based; settings: in vivo, read-out: Vdss
# [6] = Cytotoxicity against mesangial cells (unknown origin) expressing Hu-DDR1b assessed as reduction in cell viability at 10 uM incubated for 24 hrs by microscopic analysis; format: cell-based
# [7] = target: T1, Discoidin domain-containing receptor 2 (Homo sapiens, UniProt Q16832); test: Inhibition of kinase tracer 178 binding to recombinant human His-tagged DDR2 expressed in baculovirus infected Sf9 cells incubated for 1 hr by TR-FRET based LanthaScreen Eu kinase binding assay
# T1 sequence (Q16832 whole entry): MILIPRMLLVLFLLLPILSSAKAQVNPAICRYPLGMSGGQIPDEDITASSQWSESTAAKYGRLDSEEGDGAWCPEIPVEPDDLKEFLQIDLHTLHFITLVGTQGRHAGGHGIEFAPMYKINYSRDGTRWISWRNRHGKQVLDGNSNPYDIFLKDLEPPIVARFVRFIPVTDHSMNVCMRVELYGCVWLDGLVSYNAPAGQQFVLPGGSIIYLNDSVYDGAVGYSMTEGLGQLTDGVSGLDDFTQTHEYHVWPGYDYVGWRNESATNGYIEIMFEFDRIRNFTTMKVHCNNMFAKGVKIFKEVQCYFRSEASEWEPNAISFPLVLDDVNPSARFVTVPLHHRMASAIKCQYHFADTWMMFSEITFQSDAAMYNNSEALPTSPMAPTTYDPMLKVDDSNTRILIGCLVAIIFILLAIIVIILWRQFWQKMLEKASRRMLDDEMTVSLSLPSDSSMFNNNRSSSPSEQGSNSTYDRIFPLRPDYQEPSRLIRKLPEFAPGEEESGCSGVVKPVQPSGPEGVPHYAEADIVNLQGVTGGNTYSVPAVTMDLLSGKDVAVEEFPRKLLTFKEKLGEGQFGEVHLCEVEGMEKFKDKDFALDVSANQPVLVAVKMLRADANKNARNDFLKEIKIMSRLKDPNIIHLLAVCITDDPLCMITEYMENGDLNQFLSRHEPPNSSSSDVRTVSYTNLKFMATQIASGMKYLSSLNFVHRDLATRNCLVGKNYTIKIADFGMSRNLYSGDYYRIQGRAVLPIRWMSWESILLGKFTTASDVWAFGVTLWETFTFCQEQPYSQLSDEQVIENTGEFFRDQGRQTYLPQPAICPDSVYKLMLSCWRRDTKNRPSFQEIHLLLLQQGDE
# [8] = Metabolic stability in rat liver microsomes assessed as […] at 1 uM incubated for 5 mins followed by NADPH addition and measured upto 45 mins by LC/MS/MS analysis; format: ADME, Microsome; settings: read-out: CLH
# [9] = Fraction unbound in rat plasma incubated for 4 hrs by LC/MS/MS analysis; format: ADME, cell-free
# [10] = target: Epithelial discoidin domain-containing receptor 1 (Homo sapiens, UniProt Q08345); test: Inhibition of FLAG-tagged DDR1 in human HEK293 cells assessed as reduction in collagen-1-induced DDR1 phosphorylation incubated for 18 hrs by ELISA
# Epithelial discoidin domain-containing receptor 1, sequence (Q08345 whole entry, the tested form may be a part): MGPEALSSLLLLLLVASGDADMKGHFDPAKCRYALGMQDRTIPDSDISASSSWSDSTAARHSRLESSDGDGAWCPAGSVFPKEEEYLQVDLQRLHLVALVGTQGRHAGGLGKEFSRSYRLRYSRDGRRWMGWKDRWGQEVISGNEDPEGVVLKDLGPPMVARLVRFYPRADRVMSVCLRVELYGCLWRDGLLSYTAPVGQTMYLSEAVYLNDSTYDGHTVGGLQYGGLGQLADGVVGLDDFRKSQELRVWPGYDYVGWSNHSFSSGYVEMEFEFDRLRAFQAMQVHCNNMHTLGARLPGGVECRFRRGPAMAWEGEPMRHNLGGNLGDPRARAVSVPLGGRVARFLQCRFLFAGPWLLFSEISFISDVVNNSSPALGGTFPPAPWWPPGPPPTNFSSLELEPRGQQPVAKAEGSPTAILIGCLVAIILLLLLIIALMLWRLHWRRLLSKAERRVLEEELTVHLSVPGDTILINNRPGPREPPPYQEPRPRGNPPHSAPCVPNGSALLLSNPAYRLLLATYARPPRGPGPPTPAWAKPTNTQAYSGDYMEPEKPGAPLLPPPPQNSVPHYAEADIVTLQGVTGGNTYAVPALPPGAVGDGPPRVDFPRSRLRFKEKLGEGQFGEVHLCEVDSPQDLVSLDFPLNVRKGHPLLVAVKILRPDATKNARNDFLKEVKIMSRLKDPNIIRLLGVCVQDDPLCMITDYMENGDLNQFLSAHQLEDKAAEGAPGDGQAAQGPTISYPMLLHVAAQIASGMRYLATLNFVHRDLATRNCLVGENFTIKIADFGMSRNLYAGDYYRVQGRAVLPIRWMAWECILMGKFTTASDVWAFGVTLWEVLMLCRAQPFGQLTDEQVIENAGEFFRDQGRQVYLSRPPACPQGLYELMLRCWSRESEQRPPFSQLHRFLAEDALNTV
# [11] = Cytotoxicity against mesangial cells (unknown origin) expressing Hu-DDR1b assessed as reduction in cell viability at 1 uM incubated for 24 hrs by microscopic analysis; format: cell-based
Compound,IC50 [7] [nM],CLint scaled at 1 µM [8] [mL/min/kg],fraction unbound at 4 h [9],also measured
Cn1ccc(-c2cncc(CNc3cc(C(=O)Nc4cccc(OC(F)(F)F)c4)ccc3F)c2)n1,7.39,43.2,0.089,clearance [1]: 34.2 mL/min/kg; bioavailability [2]: 12.5%; half-life [3]: 3 h; Tmax [4]: 0.75 h; Vd [5]: 4.3 L/kg; Activity [6]: Non-Toxic
Cc1ccc(C(=O)Nc2cccc(C(F)(F)F)c2)cc1NCc1cccnc1,10.6,,,
Cc1ccc(C(=O)Nc2cccc(C(F)(F)F)c2)cc1NCc1cncc(-c2ccc[nH]2)c1,11,62,0.001,
COc1cncc(CNc2cc(C(=O)Nc3cccc(C(F)(F)F)c3)ccc2C)c1,6.36,,,
Cc1ccc(C(=O)Nc2cccc(C(F)(F)F)c2)cc1NCc1cncc(-c2ccn(C)n2)c1,4.56,46,0.016,
Cc1ccc(C(=O)Nc2ccc(C)c(C(F)(F)F)c2)cc1NCc1cncc(-c2ccc[nH]2)c1,44.1,,,
Cc1ccc(C(=O)Nc2cccc(C(F)(F)F)c2)cc1NCc1cncc(C(N)=O)c1,4.79,,,
Cc1ccc(C(=O)Nc2cccc(C(F)(F)F)c2)cc1Nc1cncc(C(N)=O)c1,,60,0.018,IC50 [10]: 4.8 nM; Activity [11]: Toxic
